Experimental data as given in patent EP4759807A1, “PROTEOLYSIS TARGETING CHIMERA COMPOUND FOR DEGRADING IRAK4 AND USE THEREOF” (Shenzhen Zhongge Biological Technology Co., Ltd., priority 2023, dated 2025).

Key:
IRAK4 [1] = biological target: T1, IRAK4 (Homo sapiens, UniProt Q9NWZ3); experiment: Hibit fluorescence detection of proteolysis (IRAK4-HiBiT in HEK293T cells); format: cell-based; design: host or cells: HEK293T (ATCC); details: for Dmax: HEK-293T; for DC50: IRAK4-HiBiT, HEK293T cells, 24 h
T1 sequence (Q9NWZ3 1-460): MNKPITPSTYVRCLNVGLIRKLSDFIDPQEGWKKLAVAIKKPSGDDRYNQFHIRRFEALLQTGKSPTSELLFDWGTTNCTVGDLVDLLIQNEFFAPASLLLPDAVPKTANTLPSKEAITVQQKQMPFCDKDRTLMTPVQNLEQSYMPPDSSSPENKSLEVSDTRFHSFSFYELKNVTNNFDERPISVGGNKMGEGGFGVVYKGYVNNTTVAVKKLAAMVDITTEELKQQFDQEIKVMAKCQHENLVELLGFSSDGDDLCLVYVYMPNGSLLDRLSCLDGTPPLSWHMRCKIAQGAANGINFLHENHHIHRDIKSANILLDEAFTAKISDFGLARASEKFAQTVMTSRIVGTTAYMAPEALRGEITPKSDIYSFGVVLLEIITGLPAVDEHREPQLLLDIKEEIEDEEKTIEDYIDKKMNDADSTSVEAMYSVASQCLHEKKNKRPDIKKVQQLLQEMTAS
Method in brief: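 Degradation read-out: luminescence from lytic HiBiT detection (15 min, room temperature) after 24 h compound exposure (37 °C, 5% CO2) of HEK293T cells transiently expressing IRAK4 fused to a HiBiT tag. Data fitted to a bell-shaped four-parameter model giving two EC50 values.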

IRAK4 [2] = biological target: T1, IRAK4; experiment: WB detection of proteolysis (Western Blot, THP-1 cells); format: cell-based; details: Western Blot, THP-1 cells, 24 h; for DC50: read-out: DC50; for Dmax: read-out: Dmax
Method: The degradation level of IRAK4 in THP-1 cells was detected by Western Blot technology. […] 1000X gradient dilution stock of the compound was prepared, with the highest concentration set at 300 µM. The dilution was carried out using DMSO in a 1:3 dilution factor, yielding a total of 9 concentrations. 1000X gradient dilutions of the compound were added to a 12-well plate, with 1 µL per well. Incubation was performed under conditions of 37°C and 5% CO2 for 24 h, and the cells were collected into 2 mL of centrifuge tubes and centrifuged at 5000 rpm for 5 min, and the supernatant was removed. 100 µL of RIPA lysis buffer (Beyotime, P0013C) was added and mixed uniformly, then the cells were lysed on ice for 10 min, centrifuged at 4°C at 14000 rpm for 10 min, and the supernatant was collected. Protein content was determined with BCA (Solarbio, PC0020-10*50T). 75 µL of the supernatant was taken, and 25 µL of NuPAGE LDS Sample Buffer (4X) (Thermo B0007) was added to each tube (5% β-mercaptoethanol was added before use) to prepare samples, and the samples were boiled in a metal bath at 100°C for 5 min. […] 1x NuPAGE™ MOPS SDS electrophoresis buffer (20X) (Invitrogen, NP0001) was prepared, and the electrophoresis instrument was set to a constant current of 300 mA for 100 min, and the protein was transferred to a PVDF membrane (Millipore, IPVH00010). […] The membrane was washed three times with 1x TBST (Elabscience E-BC-R335) the next day, each time for 5 min. […] The membrane was washed three times with TBST, each time for 5 min. The Odyssey imaging system Li-cor Odyssey CLx was used to detect signals and analyze data. GraphPad (Prism 9.3) software was used to perform analysis for data, and non-linear fitting (non-liner inhibitor (Bell-shaped)) and four parameters (4 parameter) were used, and the parameters was as follows: Span1 = Plateau1−Dip [formula] Span2 = Plateau2−Dip [formula] Section1 = Span1/(1+10^(∧)((LogEC50_1−X)*nH1)) [formula] Section2 = Span2/(1+10^(∧)((X−LogEC50_2)*nH2)) [formula]
The equation was as follows: Y=Dip+Section1+Section2.

SMILES | Dmax (IRAK4 [1]) | DC50 (IRAK4 [1]; read-out: DC50) | DC50 (IRAK4 [2]) | Dmax (IRAK4 [2]) | DC50 (IRAK4 [1])
C[C@H]1CN(c2ccn3ncc(-c4cn(-c5cn([C@H]6CC[C@H](CN7CCC8(CC7)CN(c7cccc9c7n(C)c(=O)n9C7CCC(=O)NC7=O)C8)CC6)nc5C(F)F)nn4)c3n2)CCO1 (some centres unmarked) [Compound 178] | > 80% | < 0.5 nM | < 10 nM | > 70% | 
C[C@H]1COCCN1c1ccn2ncc(-c3cn(-c4cn([C@H]5CC[C@H](CN6CCC7(CC6)CCN(c6cccc8c6n(C)c(=O)n8C6CCC(=O)NC6=O)C7)CC5)nc4C(F)F)nn3)c2n1 (some centres unmarked) [Compound 204] | 70 to 80% | < 0.5 nM | < 10 nM | 60 to 70% | 
C[C@H]1CN(c2ccn3ncc(-c4cn(-c5cn([C@H]6CC[C@H](CN7CCC(N8CCN(c9cccc%10c9n(C)c(=O)n%10C9CCC(=O)NC9=O)CC8)CC7)CC6)nc5C(F)F)nn4)c3n2)CCO1 (some centres unmarked) [Compound 208] | > 80% | < 0.5 nM | < 10 nM | > 70% | 
Cn1c(=O)n(C2CCC(=O)NC2=O)c2cccc(N3CCC4(CCN(C[C@H]5CC[C@H](n6cc(-n7cc(-c8cnn9ccc(N%10CCC(C)(O)CC%10)nc89)nn7)c(C(F)F)n6)CC5)C4)CC3)c21 (some centres unmarked) [Compound 238] | > 80% | < 0.5 nM | 10 to 30 nM | 60 to 70% | 
Cn1c(=O)n(C2CCC(=O)NC2=O)c2cccc(N3CCN(C[C@H]4CC[C@H](n5cc(-n6cc(-c7cnn8ccc(N9CCOCC9)nc78)nn6)c(C(F)F)n5)CC4)CC3)c21 (some centres unmarked) [Example 30] | > 80% |  | < 10 nM | < 60% | < 0.5 nM
Cn1c(=O)n(C2CCC(=O)NC2=O)c2cccc(N3CCC(N4CCN(C[C@H]5CC[C@H](n6cc(-n7cc(-c8cnn9ccc(N%10CCOCC%10)nc89)nn7)c(C(F)F)n6)CC5)CC4)CC3)c21 (some centres unmarked) [Example 34] | > 80% |  | < 10 nM | 60 to 70% | < 0.5 nM
Cn1c(=O)n(C2CCC(=O)NC2=O)c2cccc(N3CC4(CCN(C[C@H]5CC[C@H](n6cc(-n7cc(-c8ccc9cc(C(N)=O)cnn89)nn7)c(C(F)F)n6)CC5)CC4)C3)c21 (some centres unmarked) [Example 35] | > 80% |  | < 10 nM | 60 to 70% | < 0.5 nM
Cn1c(=O)n(C2CCC(=O)NC2=O)c2cccc(N3CCC4(CCN(C[C@H]5CC[C@H](n6cc(-n7cc(-c8cnn9ccc(N%10CCOCC%10)nc89)nn7)c(C(F)F)n6)CC5)CC4)CC3)c21 (some centres unmarked) [Example 36] | > 80% |  | < 10 nM | 60 to 70% | < 0.5 nM
Cn1c(=O)n(C2CCC(=O)NC2=O)c2cccc(N3CCC4(CCN(C[C@H]5CC[C@H](n6cc(-n7cc(-c8ccc9cc(C(N)=O)cnn89)nn7)c(C(F)F)n6)CC5)C4)CC3)c21 (some centres unmarked) [Example 37] | > 80% |  | < 10 nM | 60 to 70% | < 0.5 nM
Cn1c(=O)n(C2CCC(=O)NC2=O)c2cccc(N3CCC(CN4CCC5(CCC(n6cc(-n7cc(-n8ccc9cc(C(N)=O)cnc98)nn7)c(C(F)F)n6)CC5)CC4)CC3)c21 (centres unmarked) [Example 286] |  |  | > 30 nM | < 60% | 
C[C@H]1CN(c2cccc3c2n(C)c(=O)n3C2CCC(=O)NC2=O)CCN1C[C@H]1CC[C@H](n2cc(-n3cc(-c4cnn5ccc(N6CCC[C@H](O)C6)nc45)nn3)c(C(F)F)n2)CC1 (stereo partly drawn) [Example 287, 3-(4-((S)-4-(((1R,4S)-4-(3-(difluoromethyl)-4-(4-(5-((S)-3-hydroxypiperidin-1-yl)pyrazolo[1,5-a]pyrimidin-3-yl)-1H-1,2,3-triazol-1-yl)-1H-pyrazol-1-yl)cyclohexyl)methyl)-3-methylpiperazin-1-yl)-3-methyl-2-oxo-2,3-dihydro-1H-benzo[d]imidazol-1-yl)piperidine-2,6-dione] |  |  | < 10 nM | > 70% | 
Cn1c(=O)n(C2CCC(=O)NC2=O)c2cccc(N3CCC(CN4CCC5(CCC(n6cc(-n7cc(-c8cnn9ccc(N%10CCC[C@H](O)C%10)nc89)nn7)c(C(F)F)n6)CC5)CC4)CC3)c21 (some centres unmarked) [Example 290] |  |  | < 10 nM | > 70% | 
C[C@H]1CN(C2CCN(c3cccc4c3n(C)c(=O)n4C3CCC(=O)NC3=O)CC2)CCN1C[C@H]1CC[C@H](n2cc(-n3cc(-c4cnn5ccc(N6CCC[C@H](O)C6)nc45)nn3)c(C(F)F)n2)CC1 (stereo partly drawn) [Example 291, 3-(4-(4-((S)-4-(((1R,4S)-4-(3-(difluoromethyl)-4-(4-(5-((S)-3-hydroxypiperidin-1-yl)pyrazolo[1,5-a]pyrimidin-3-yl)-1H-1,2,3-triazol-1-yl)-1H-pyrazol-1-yl)cyclohexyl)methyl)-3-methylpiperazin-1-yl)piperidin-1-yl)-3-methyl-2-oxo-2,3-dihydro-1H-benzo[d]imidazol-1-yl)piperidine-2,6-dione] |  |  | < 10 nM | > 70% | 
C[C@@H]1CN(C2CCN(c3cccc4c3n(C)c(=O)n4C3CCC(=O)NC3=O)CC2)CCN1C[C@H]1CC[C@H](n2cc(-n3cc(-c4cnn5ccc(N6CCC[C@H](O)C6)nc45)nn3)c(C(F)F)n2)CC1 (some centres unmarked) [Example 292] |  |  | < 10 nM | > 70% | 
Cn1nc(C2CCC(=O)NC2=O)c2cccc(N3CCC(N4CCN(C[C@H]5CC[C@H](n6cc(-n7cc(-c8cnn9ccc(N%10CCC[C@H](O)C%10)nc89)nn7)c(C(F)F)n6)CC5)CC4)CC3)c21 (some centres unmarked) [Example 293] |  |  | < 10 nM | > 70% | 
C[C@@H]1CN(C[C@H]2CC[C@H](n3cc(-n4cc(-c5cnn6ccc(N7CCC[C@H](O)C7)nc56)nn4)c(C(F)F)n3)CC2)CCN1C1CCN(c2cccc3c2n(C)c(=O)n3C2CCC(=O)NC2=O)CC1 (stereo partly drawn) [Example 294, 3-(4-(4-((R)-4-(((1R,4R)-4-(3-(difluoromethyl)-4-(4-(5-((S)-3-hydroxypiperidin-1-yl)pyrazolo[1,5-a]pyrimidin-3-yl)-1H-1,2,3-triazol-1-yl)-1H-pyrazol-1-yl)cyclohexyl)methyl)-2-methylpiperazin-1-yl)piperidin-1-yl)-3-methyl-2-oxo-2,3-dihydro-1H-benzo[d]imidazol-1-yl)piperidine-2,6-dione] |  |  | < 10 nM | > 70% | 
C[C@H]1CC2(CCN(c3cccc4c3n(C)c(=O)n4C3CCC(=O)NC3=O)CC2)CN1C[C@H]1CC[C@H](n2cc(-n3cc(-c4cnn5ccc(N6CCC[C@H](O)C6)nc45)nn3)c(C(F)F)n2)CC1 (stereo partly drawn) [Example 295, 3-(4-((S)-2-(((1R,4S)-4-(3-(difluoromethyl)-4-(4-(5-((S)-3-hydroxypiperidin-1-yl)pyrazolo[1,5-a]pyrimidin-3-yl)-1H-1,2,3-triazol-1-yl)-1H-pyrazol-1-yl)cyclohexyl)methyl)-3-methyl-2,8-diazaspiro[4.5]dec-8-yl)-3-methyl-2-oxo-2,3-dihydro-1H-benzo[d]imidazol-1-yl)piperidine-2,6-dione] |  |  | > 30 nM | > 70% | 
C[C@@H]1CC2(CCN(c3cccc4c3n(C)c(=O)n4C3CCC(=O)NC3=O)CC2)CN1C[C@H]1CC[C@H](n2cc(-n3cc(-c4cnn5ccc(N6CCC[C@H](O)C6)nc45)nn3)c(C(F)F)n2)CC1 (some centres unmarked) [Example 296] |  |  | 10 to 30 nM | > 70% | 
Cn1c(=O)n(C2CCC(=O)NC2=O)c2cccc(N3CCC(N4CCN(C[C@H]5CC[C@H](n6cc(-n7cc(-c8cnn9ccc(N%10CCC[C@H](O)C%10)nc89)nn7)c(C(F)F)n6)CC5)CC4)[C@@H](F)C3)c21 (stereo partly drawn) [Example 297, 3-(4-((3S)-4-(4-(((1R,4S)-4-(3-(difluoromethyl)-4-(4-(5-((S)-3-hydroxypiperidin-1-yl)pyrazolo[1,5-a]pyrimidin-3-yl)-1H-1,2,3-triazol-1-yl)-1H-pyrazol-1-yl)cyclohexyl)methyl)piperazin-1-yl)-3-fluoropiperidin-1-yl)-3-methyl-2-oxo-2,3-dihydro-1H-benzo[d]imidazol-1-yl)piperidine-2,6-dione] |  |  | < 10 nM | > 70% | 
